Reference: PubChem BioAssay AID1189 (EPA DSSTox, 2008)
The source made the active and inactive calls.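 The calls were made as follows: active = a tumor-causing dose value with its tumor site reported for any sex and species group of a rodent or other animal cancer study; inconclusive = only studies judged inadequate by the national testing program; inactive = tested in at least one study, none positive.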

Experiment: DSSTox (CPDBAS) Carcinogenic Potency Database Summary SingleCellCall Results
Settings: animal chronic carcinogenicity bioassays, CPDB summary call
Procedure, shortened: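 Literature-derived summary: each substance receives an overall carcinogenic/non-carcinogenic category drawn from long-term bioassays in rats, mice, hamsters, dogs or primates, using the most positive sex-species experiment and minimal evidence criteria.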

SMILES	outcome
c1ccc2ccccc2c1	active
CN[C@@H](C)[C@H](O)c1ccccc1	inactive
CC(=O)C(N=Nc1ccc(-c2ccc(N=NC(C(C)=O)C(=O)Nc3ccccc3)c(Cl)c2)cc1Cl)C(=O)Nc1ccccc1 (configuration not stated)	inactive
O=C1O[C@H]([C@@H](O)CO)C(O)=C1O	inactive
NC(N)=NC(N)=NCCc1ccccc1	inactive
O=P(OCC(Br)CBr)(OCC(Br)CBr)OCC(Br)CBr (configuration not stated)	active
NC(=S)Nc1ccccc1	inactive
CCCCCCCCCc1ccc(OCCOCCO)cc1	inactive; active
[O]=[Mo](=[O])=[O]	active
Nc1ccc(N=Nc2ccc(N)cc2)cc1	inactive; active
CCCC/C=N/N(C)C=O	active
O=C(O)c1[nH]n(-c2ccc(S(=O)(=O)O)cc2)c(=O)c1N=Nc1ccc(S(=O)(=O)O)cc1	inactive
C=CC(=C)C	active
O=NN1CCCCCC1	active
Clc1cccc(-c2ccc(Cl)c(Cl)c2Cl)c1Cl	active
Nc1nc(N)nc(-c2cc(Cl)ccc2Cl)n1	inactive
NC(Cc1c[nH]c2ccccc12)C(=O)O (configuration not stated)	inactive
P	inactive
C=CCOCC1CO1 (configuration not stated)	active
Cn1cc[nH]c1=S	active; inactive
OCCN(CCO)c1nc(-c2cccs2)nc2ccccc12	inactive
COc1ccc(C(=O)/C(Br)=C\C(=O)O)cc1	active
NC(=O)/C(=C\c1ccc([N+](=O)[O-])o1)c1ccco1	active

SMILES	outcome
O=C(Nc1nc(-c2ccc([N+](=O)[O-])o2)cs1)C(F)(F)F	active
O=C1NCCN1/N=C/c1ccc([N+](=O)[O-])o1	active
C=CCc1ccc2c(c1)OCO2	active
O=C(O)c1cccnc1	inactive
CCCCCCCCS(=O)C(C)Cc1ccc2c(c1)OCO2 (configuration not stated)	active
O=NN1CCC1	active
CC(=O)Nc1ccc2c(c1)Cc1ccccc1-2	active
[K+]	active; inactive
Clc1cccc(-c2cccc(Cl)c2)c1	active
NC(=O)N(CCCO)N=O	active; inactive
CC(C)=NO	active
C=CCNN	active
Clc1ccc(Cl)cc1	active
COC(=O)C1=CCCN(N=O)C1	inactive
N#Cc1ccc(C2CCCc3cncn32)cc1 (configuration not stated)	inactive; active
Clc1ccc2c(c1)C(c1ccccc1)=NCc1nncn1-2	inactive; active
CN(N=O)c1ccccc1	active
COc1cc(S(C)=O)ccc1-c1nc2ccncc2[nH]1 (configuration not stated)	active
C[C@]12CC[C@H](OS(=O)(=O)O)CC1=CC[C@@H]1[C@@H]2CC[C@]2(C)C(=O)CC[C@@H]12	inactive; active
Oc1cccc2cccnc12.Oc1cccc2cccnc12.[Cu]	inactive
O=[N+]([O-])c1ccccc1	active
CN(C)CNc1nnc(/C=C/c2ccc([N+](=O)[O-])o2)o1	active
COC(N)=O	active

SMILES	outcome
CCCc1c(OCCCCc2nn[nH]n2)ccc(C(C)=O)c1O	active
CC12CCC(CC1)C(C)(C)O2	inactive
OC(O)C(Cl)(Cl)Cl	active; inactive
C#C[C@]1(O)CC[C@H]2[C@@H]3CCc4cc(O)ccc4[C@H]3CC[C@@]21C	active; inactive
CC(=O)N[C@@H](CS)C(=O)O	inactive
C[C@]12CCC(=O)C=C1CC[C@@H]1[C@@H]2[C@@H](O)C[C@@]2(C)[C@H]1CC[C@]2(O)C(=O)CO	inactive
C/C=C/C=C/C=O	active
COc1cc(-c2ccc(N=C=O)c(OC)c2)ccc1N=C=O	active
COc1cc(N)ccc1N=Nc1ccccc1	inactive; active
CN(N=O)C1=Nc2ccc(Cl)cc2C(c2ccccc2)=[N+]([O-])C1	inactive
CC(O)CO (configuration not stated)	inactive
C=COC(C)=O	active
C=CC(=O)O	inactive; active
CNCCc1ccc(OC(=O)C(C)C)c(OC(=O)C(C)C)c1	inactive
C[C@H](CCC(=O)O)[C@H]1CC[C@H]2[C@@H]3CC[C@@H]4C[C@H](O)CC[C@]4(C)[C@H]3CC[C@]12C	inactive
COC(=O)C(C)(C)Oc1ccc(-c2ccc(Cl)cc2)cc1	active
CCCNN	active
C=C/C=N/O	inactive
O=C(O)c1cc(O)c(O)c(O)c1	inactive
CC(C)=CCl	active
Nc1c(Cl)cc([N+](=O)[O-])cc1Cl	inactive
CNNCc1ccc(C(=O)NC(C)C)cc1	active
O=[N+]([O-])c1ccc2c3c(cccc13)CC2	active

SMILES	outcome
CN(C)CCN(Cc1ccco1)c1ccccn1	inactive; active
O=c1[nH]cc(F)c(=O)[nH]1	active; inactive
Cc1cc(Cc2ccc(N)c(C)c2)ccc1N	active
Cl	inactive
CC1=NN(c2ccccc2)C(=O)C1	inactive
CC(=O)CN(CC(C)=O)N=O	active
COc1ccccc1N	active
NC(=O)c1cnccn1	inactive
O.O.O.O.O.O.O=S(=O)([O-])[O-].[Ni+2]	inactive
Cc1ccccc1S(N)(=O)=O	active
COc1ccc(N)cc1	inactive
CN1[C@@H]2CC(OC(=O)[C@@H](CO)c3ccccc3)C[C@H]1[C@@H]1O[C@@H]12 (some centres not stated)	inactive
CC(=O)Nc1nnc(-c2ccc([N+](=O)[O-])o2)s1	active
NC(Cc1ccc(O)c(O)c1)C(=O)O (configuration not stated)	inactive
OCC1CO1 (configuration not stated)	active
Cc1csc(NNC=O)n1	active
CCNN	active
C=CCN(N=O)C(N)=O	active
Cc1c2ccccc2c(C)c2c1ccc1ccccc12	active; inactive
O=NN1CCN(N=O)CC1	active; inactive
CCNC(=S)NCC	active
CCN(C)N=O	active
Nc1ccc(-c2ccccc2)cc1	active

SMILES	outcome
C/C=C\c1ccc(OC)cc1	inactive
COC(C(=O)O)c1ccccc1 (configuration not stated)	inactive; active
COc1ccc(C(Cl)=C(c2ccc(OC)cc2)c2ccc(OC)cc2)cc1	inactive
C=Cc1ccccc1	active
CN(C)c1ccc(Cc2ccc(N(C)C)cc2)cc1	active
O=NN1C[C@H](O)C[C@H]1C(=O)O	inactive
O=C(O)CN(CCN(CC(=O)O)CC(=O)O)CC(=O)O	inactive
CN(C)c1ccc(C(=O)c2ccc(N(C)C)cc2)cc1	active
Cc1cnc(NC(=O)C2=C(O)c3ccccc3S(=O)(=O)N2C)s1	inactive
OO	active; inactive
Cc1cccn2c1nc1ccc(N)nc12	active
NC(=O)c1cccnc1	inactive
CC[C@H](C)C(=O)O[C@H]1C[C@@H](C)C=C2C=C[C@H](C)[C@H](CC[C@@H]3C[C@@H](O)CC(=O)O3)[C@H]21	active; inactive
Nc1ccccc1C(=O)O	inactive; active
CC(C)(C)NCC(O)c1ccc(O)c(CO)c1 (configuration not stated)	active; inactive
Cc1cc2ncccc2c2nc(N)n(C)c12	active
CNC[C@H](O)c1cccc(O)c1	inactive
CC(O)CN(CC(C)O)N=O (configuration not stated)	active
Nc1ccc([N+](=O)[O-])cc1N	inactive; active
O=NN(CC(=O)O)CC(=O)O	inactive
c1ccc2[nH]ccc2c1	inactive
CC(=O)O[C@@H]1[C@@H](O)C2OC3C=C(C)C(=O)C(O)[C@@]3(CO)[C@]1(C)[C@]21CO1 (some centres not stated)	inactive
CC(Cl)C=O (configuration not stated)	active

SMILES	outcome
C=CN1CCCC1=O	active; inactive
CNC[C@H](O)c1ccc(O)c(O)c1	inactive
C=CCl	active; inactive
CN(CCCO)N=O	active; inactive
CC1=C(C)C(=O)C(C(CCCCCC(=O)O)c2ccccc2)=C(C)C1=O (configuration not stated)	inactive
Cc1c(C)c2c(c(C)c1O)CCC(C)(CCCC(C)CCCC(C)CCCC(C)C)O2 (configuration not stated)	inactive
N/C(=N\O)c1ccc([N+](=O)[O-])o1	inactive
Nc1ccc2ccccc2c1S(=O)(=O)O	inactive
N#Cc1c(Cl)c(Cl)c(Cl)c(C#N)c1Cl	active; inactive
COC1=CC(=O)C[C@@H](C)[C@]12Oc1c(Cl)c(OC)cc(OC)c1C2=O	active
C[C@H]1C(=O)O[C@@H]2CCN3CC=C(COC(=O)[C@](C)(O)[C@]1(C)O)[C@H]23	active
O=C/C(Cl)=C(/Cl)C(=O)O	inactive
C[C@@H]1O[C@@H](OC[C@H]2O[C@@H](Oc3c(-c4ccc(O)c(O)c4)oc4cc(O)cc(O)c4c3=O)[C@H](O)[C@@H](O)[C@@H]2O)[C@H](O)[C@H](O)[C@H]1O	inactive
Cc1cc(Cl)ccc1N	active
CCN(Cc1cccc(S(=O)(=O)O)c1)c1ccc(C(=C2C=CC(=[N+](CC)Cc3cccc(S(=O)(=O)O)c3)C=C2)c2ccccc2S(=O)(=O)[O-])cc1	inactive; active
O=[N+]([O-])c1ccc2ccc3cccc4ccc1c2c34	active
CCN(CC)C(=O)c1cccc(C)c1	inactive
CC(CN1c2ccccc2Sc2ccccc21)N(C)C (configuration not stated)	inactive
OCC(O)CCl (configuration not stated)	inactive
Nc1ccc2c(c1)C(=O)c1ccccc1C2=O	active
c1ccc2sc(SSc3nc4ccccc4s3)nc2c1	inactive
CCCCN(CCCC)C(=S)[S-].CCCCN(CCCC)C(=S)[S-].[Zn+2]	inactive
